These results are taken from patent US20180186742A1, “PICOLINAMIDES AS FUNGICIDES” (Dow AgroSciences LLC, priority 2017, published 2018).

Like-named read-outs stand apart in the source and are kept apart here.

One test deals with Puccinia triticina. Kind of test: Wheat brown rust (PUCCRT), disease control on wheat seedlings. In kind it is in vivo. As to conditions: for pest or weed control at 121.5 g/ha: low volume application at 121.5 g/H; for pest or weed control at 100 ppm: high volume application at 100 ppm. In short, it runs like this:
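Compounds in acetone, diluted with nine volumes of water containing 110 ppm Triton X-100, sprayed to run-off on first-leaf Yuma wheat seedlings; track-spray tests used EC formulations with 0.1% Trycol 5941. Puccinia triticina spores applied before or after treatment. Overnight dark dew room at 22° C, 100% humidity, then greenhouse at 24° C.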

The next test has as its system Zymoseptoria tritici. Kind of test: Leaf blotch of wheat (SEPTTR), disease control on wheat seedlings. In kind it is in vivo. The conditions noted are these: for pest or weed control at 121.5 g/ha: low volume application at 121.5 g/H; for pest or weed control at 100 ppm: high volume application at 100 ppm. In short, it runs like this:
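Z. tritici spores were inoculated onto wheat seedlings (Yuma, first leaf emerged) either before or after treatment. Treatment was an automated spray to run-off of acetone/Triton X-100 water solutions, or a track spray of EC formulations with 0.1% Trycol 5941. Plants were held in dew chambers at 20 °C and then a greenhouse at 20 °C. First-leaf severity (0–100%) was converted to percent control against untreated plants.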

The mark [1] stands for this setting: 24 h, 1 Day Protectant, read-out: PUCCRT disease control, 1DP, LV activity.
Setting [2] is: 72 h, 3 Day Curative, read-out: PUCCRT disease control, 3DC, LV activity.
[3] abbreviates: 24 h, 1 Day Protectant, read-out: SEPTTR disease control, 1DP, LV activity.
Where [4] appears, read: 24 h, 1 Day Protectant, read-out: PUCCRT disease control, 1DP, HV activity.
Setting [5] is: 72 h, 3 Day Curative, read-out: PUCCRT disease control, 3DC, HV activity.
[6] abbreviates: 24 h, 1 Day Protectant, read-out: SEPTTR disease control, 1DP, HV activity.
Setting [7] is: 72 h, 3 Day Curative, read-out: SEPTTR disease control, 3DC, HV activity.
The mark [8] stands for this setting: 72 h, 3 Day Curative, read-out: SEPTTR disease control, 3DC, LV activity.
Where [9] appears, read: 24 h, 1 Day Protectant, wheat brown rust, read-out: PUCCRT 1DP disease control, LV activity.
[10] abbreviates: 72 h, 3 Day Curative, wheat brown rust, read-out: PUCCRT 3DC disease control, LV activity.
The mark [11] stands for this setting: 24 h, 1 Day Protectant, wheat leaf blotch, read-out: SEPTTR 1DP disease control, LV activity.
The mark [12] stands for this setting: 72 h, 3 Day Curative, wheat leaf blotch, read-out: SEPTTR 3DC disease control, LV activity.

Consider `COc1ccnc(C(=O)N[C@@H](C)C(=O)O[C@@H](C)[C@H](c2ccc(F)c(C)c2)C(C)C)c1OCOC(C)=O` [Compound 256], for which the pest or weed control at 121.5 g/ha with Puccinia triticina (setting [1]), in the test on Puccinia triticina (setting [2]) and in the test with Zymoseptoria tritici (setting [3]) was more than 80% each time.
With `COc1ccnc(C(=O)N[C@@H](C)C(=O)O[C@@H](C)[C@H](c2ccc(F)cc2C)C2CCC2)c1O` [Compound 127], the pest or weed control at 100 ppm with Puccinia triticina (setting [4]) is more than 80%; in the test on Puccinia triticina (setting [5]), more than 80%; in the test on Zymoseptoria tritici (setting [6]) it was more than 80%; with Zymoseptoria tritici (setting [7]), less than 80%.
For the compound `CCC(C)[C@@H](c1ccc(F)cc1C)[C@H](C)OC(=O)[C@H](C)NC(=O)c1nccc(OC)c1O` (stereo partly drawn) [Compound 126], the pest or weed control at 100 ppm in the test on Puccinia triticina (setting [4]) was more than 80%; in the test on Puccinia triticina (setting [5]), less than 80%; in the test with Zymoseptoria tritici (setting [6]) it was more than 80%; with Zymoseptoria tritici (setting [7]), more than 80%.
Regarding `COc1ccnc(C(=O)N[C@@H](C)C(=O)O[C@@H](C)[C@H](c2ccc(C)cc2C)C(C)C)c1O` [Compound 325], the pest or weed control at 100 ppm with Puccinia triticina (setting [4]) was more than 80%; in the test with Puccinia triticina (setting [5]), more than 80%; in the test on Zymoseptoria tritici (setting [6]) it was more than 80%; in the test with Zymoseptoria tritici (setting [7]), less than 80%.
As to `COc1ccc([C@H](C(C)C)[C@H](C)OC(=O)[C@H](C)NC(=O)c2nccc(OC)c2OC(C)=O)c(C)c1` [Compound 254], the pest or weed control at 121.5 g/ha with Puccinia triticina (setting [1]), in the test on Puccinia triticina (setting [2]) and in the test with Zymoseptoria tritici (setting [3]) was more than 80% in each case.
Regarding `CCC(CC)[C@@H](c1ccccc1)C(C)OC(=O)[C@H](C)NC(=O)c1nccc(OC)c1OC(C)=O` (stereo partly drawn) [Compound 172], the pest or weed control at 121.5 g/ha with Puccinia triticina (setting [1]), in the test with Puccinia triticina (setting [2]), in the test on Zymoseptoria tritici (setting [3]) and in the test with Zymoseptoria tritici (setting [8]) was more than 80% throughout.
As to `CCC(CC)[C@@H](c1ccccc1C)[C@H](C)OC(=O)[C@H](C)NC(=O)c1nccc(OC)c1OC(C)=O` [Compound 385], the pest or weed control at 121.5 g/ha in the test on Puccinia triticina (setting [9]), in the test with Puccinia triticina (setting [10]), in the test on Zymoseptoria tritici (setting [11]) and with Zymoseptoria tritici (setting [12]) was more than 80% in each case.
Take `COc1ccnc(C(=O)N[C@@H](C)C(=O)O[C@@H](C)[C@@H](c2ccccc2)C2CCCC2)c1O` [Compound 106]: the pest or weed control at 100 ppm in the test on Puccinia triticina (setting [4]) was less than 80%; in the test with Puccinia triticina (setting [5]), less than 0%; in the test on Zymoseptoria tritici (setting [6]) it was less than 0%; with Zymoseptoria tritici (setting [7]), less than 0%.
Turning to `COc1ccnc(C(=O)N[C@@H](C)C(=O)O[C@@H](C)[C@@H](c2ccc(C)cc2C)C2CCCCC2)c1O` [Compound 133], the pest or weed control at 100 ppm with Puccinia triticina (setting [4]) is more than 80%; in the test on Puccinia triticina (setting [5]), less than 80%; in the test on Zymoseptoria tritici (setting [6]) it was more than 80%; with Zymoseptoria tritici (setting [7]), less than 80%.
Consider `COc1ccc([C@H](C(C)C)[C@H](C)OC(=O)[C@H](C)NC(=O)c2nccc(OC)c2O)cc1` [Compound 338], for which the pest or weed control at 100 ppm in the test with Puccinia triticina (setting [4]) was more than 80%; in the test on Puccinia triticina (setting [5]), more than 80%; in the test on Zymoseptoria tritici (setting [6]) it was less than 80%; in the test with Zymoseptoria tritici (setting [7]), less than 80%.
Regarding `COc1ccnc(C(=O)N[C@@H](C)C(=O)O[C@H](C)[C@H](c2ccc(F)cc2C)C2CCCC2)c1O` [Compound 128], the pest or weed control at 100 ppm in the test on Puccinia triticina (setting [4]) is less than 80%; in the test with Puccinia triticina (setting [5]), less than 0%; in the test on Zymoseptoria tritici (setting [6]), less than 0%; in the test on Zymoseptoria tritici (setting [7]) it was less than 80%.
For `COc1ccnc(C(=O)N[C@@H](C)C(=O)OC(C)[C@H](c2ccccc2)C2CCCC2)c1OCOC(C)=O` (stereo partly drawn) [Compound 175], the pest or weed control at 121.5 g/ha in the test with Puccinia triticina (setting [1]), in the test with Puccinia triticina (setting [2]), with Zymoseptoria tritici (setting [3]) and in the test with Zymoseptoria tritici (setting [8]) was more than 80% each time.
Take `CCC(CC)[C@H](c1ccc(F)cc1C)[C@H](C)OC(=O)[C@H](C)NC(=O)c1nccc(OC)c1O` [Compound 117]: the pest or weed control at 100 ppm was more than 80% with Puccinia triticina (setting [4]), less than 0% in the test on Puccinia triticina (setting [5]), more than 80% in the test on Zymoseptoria tritici (setting [6]) and more than 80% in the test with Zymoseptoria tritici (setting [7]).
On to `COc1ccnc(C(=O)N[C@@H](C)C(=O)O[C@@H](C)[C@H](c2ccc(C)cc2)C2CC2)c1OC(C)=O` [Compound 166], for which the pest or weed control at 121.5 g/ha in the test on Puccinia triticina (setting [1]) is more than 80%; with Puccinia triticina (setting [2]), more than 80%; in the test with Zymoseptoria tritici (setting [3]), less than 80%; in the test on Zymoseptoria tritici (setting [8]), more than 80%.
Consider `COc1ccnc(C(=S)N[C@@H](C)C(=O)O[C@@H](C)[C@@H](c2ccccc2)C2CCCC2)c1O` [Compound 115], for which the pest or weed control at 100 ppm is less than 0% in the test with Puccinia triticina (setting [4]), less than 0% in the test with Puccinia triticina (setting [5]), less than 80% in the test on Zymoseptoria tritici (setting [6]) and less than 0% in the test on Zymoseptoria tritici (setting [7]).
As for `COc1ccc([C@H](C(C)C)[C@H](C)OC(=O)[C@H](C)NC(=O)c2nccc(OC)c2OCOC(C)=O)c(C)c1` [Compound 260], the pest or weed control at 121.5 g/ha in the test with Puccinia triticina (setting [1]), in the test on Puccinia triticina (setting [2]) and with Zymoseptoria tritici (setting [3]) was more than 80% throughout.
As to `CCC(CC)[C@@H](c1ccc(F)cc1OC)[C@H](C)OC(=O)[C@H](C)NC(=O)c1nccc(OC)c1O` [Compound 145], the pest or weed control at 100 ppm is more than 80% in the test on Puccinia triticina (setting [4]), more than 80% in the test with Puccinia triticina (setting [5]), less than 80% with Zymoseptoria tritici (setting [6]) and more than 80% with Zymoseptoria tritici (setting [7]).
As for `CCC(C)[C@H](c1ccc(C)cc1C)[C@H](C)OC(=O)[C@H](C)NC(=O)c1nccc(OC)c1O` (stereo partly drawn) [Compound 134], the pest or weed control at 100 ppm in the test with Puccinia triticina (setting [4]), in the test on Puccinia triticina (setting [5]), with Zymoseptoria tritici (setting [6]) and with Zymoseptoria tritici (setting [7]) was less than 80% in each case.
As for `COc1ccnc(C(=O)N[C@@H](C)C(=O)O[C@@H](C)[C@H](c2ccc(F)cc2)C(C)C)c1O` [Compound 135], the pest or weed control at 100 ppm is less than 80% in the test on Puccinia triticina (setting [4]), more than 80% with Puccinia triticina (setting [5]), less than 80% in the test on Zymoseptoria tritici (setting [6]) and more than 80% with Zymoseptoria tritici (setting [7]).
Regarding `COCCC(=O)Oc1c(OC)ccnc1C(=O)N[C@@H](C)C(=O)O[C@@H](C)[C@H](c1ccc(C)cc1OC)C(C)C` [Compound 249], the pest or weed control at 121.5 g/ha with Puccinia triticina (setting [1]) is more than 80%; in the test with Puccinia triticina (setting [2]), more than 80%; in the test on Zymoseptoria tritici (setting [3]), less than 80%.
Turning to `COc1ccnc(C(=O)N[C@@H](C)C(=O)O[C@@H](C)[C@H](c2ccc(C)cc2F)C(C)C)c1O` [Compound 329], the pest or weed control at 100 ppm was more than 80% with Puccinia triticina (setting [4]), more than 80% in the test on Puccinia triticina (setting [5]), less than 80% in the test on Zymoseptoria tritici (setting [6]) and less than 80% in the test on Zymoseptoria tritici (setting [7]).
`COc1ccnc(C(=O)N[C@@H](C)C(=O)O[C@@H](C)[C@@H](c2ccc(C)cc2C)C(C)C)c1O` [Compound 131]: the pest or weed control at 100 ppm is more than 80% in the test on Puccinia triticina (setting [4]), more than 80% in the test on Puccinia triticina (setting [5]), less than 80% in the test with Zymoseptoria tritici (setting [6]) and less than 80% in the test with Zymoseptoria tritici (setting [7]).
As to `COCCC(=O)Oc1c(OC)ccnc1C(=O)N[C@@H](C)C(=O)O[C@@H](C)[C@H](c1ccc(OC)cc1F)C(C)C` [Compound 247], the pest or weed control at 121.5 g/ha with Puccinia triticina (setting [1]) was more than 80%; in the test on Puccinia triticina (setting [2]), more than 80%; in the test on Zymoseptoria tritici (setting [3]) it was less than 80%.
`COc1ccnc(C(=O)N[C@@H](C)C(=O)O[C@@H](C)[C@H](c2ccccc2C)C(C)C)c1O` [Compound 327]: the pest or weed control at 100 ppm in the test on Puccinia triticina (setting [4]) was more than 80%; in the test with Puccinia triticina (setting [5]) it was more than 80%; with Zymoseptoria tritici (setting [6]), less than 80%; in the test on Zymoseptoria tritici (setting [7]), more than 80%.
As for `COc1ccnc(C(=O)N[C@@H](C)C(=O)O[C@@H](C)[C@H](c2c(F)cccc2Cl)C(C)C)c1OC(C)=O` [Compound 390], the pest or weed control at 121.5 g/ha in the test with Puccinia triticina (setting [9]), with Puccinia triticina (setting [10]), in the test with Zymoseptoria tritici (setting [11]) and in the test on Zymoseptoria tritici (setting [12]) was more than 80% throughout.
For `COc1ccnc(C(=O)N[C@@H](C)C(=O)O[C@@H](C)[C@@H](c2ccc(Cl)cc2Cl)C(C)C)c1O` [Compound 333], the pest or weed control at 100 ppm with Puccinia triticina (setting [4]) was more than 80%; in the test on Puccinia triticina (setting [5]) it was less than 80%; in the test on Zymoseptoria tritici (setting [6]) it was less than 80%; in the test on Zymoseptoria tritici (setting [7]) it was less than 80%.
